# Reference: US11427548B2 (Arvinas Operations, Inc., priority 2015, dated 2022)
# Read-outs that look alike come from different tables or passages of the source.
# Biological target: T1, Androgen Receptor (Homo sapiens, UniProt P10275)
# T1 construct: endogenous in cells; host or cells: VCaP cells
# T1 sequence (P10275 1-920): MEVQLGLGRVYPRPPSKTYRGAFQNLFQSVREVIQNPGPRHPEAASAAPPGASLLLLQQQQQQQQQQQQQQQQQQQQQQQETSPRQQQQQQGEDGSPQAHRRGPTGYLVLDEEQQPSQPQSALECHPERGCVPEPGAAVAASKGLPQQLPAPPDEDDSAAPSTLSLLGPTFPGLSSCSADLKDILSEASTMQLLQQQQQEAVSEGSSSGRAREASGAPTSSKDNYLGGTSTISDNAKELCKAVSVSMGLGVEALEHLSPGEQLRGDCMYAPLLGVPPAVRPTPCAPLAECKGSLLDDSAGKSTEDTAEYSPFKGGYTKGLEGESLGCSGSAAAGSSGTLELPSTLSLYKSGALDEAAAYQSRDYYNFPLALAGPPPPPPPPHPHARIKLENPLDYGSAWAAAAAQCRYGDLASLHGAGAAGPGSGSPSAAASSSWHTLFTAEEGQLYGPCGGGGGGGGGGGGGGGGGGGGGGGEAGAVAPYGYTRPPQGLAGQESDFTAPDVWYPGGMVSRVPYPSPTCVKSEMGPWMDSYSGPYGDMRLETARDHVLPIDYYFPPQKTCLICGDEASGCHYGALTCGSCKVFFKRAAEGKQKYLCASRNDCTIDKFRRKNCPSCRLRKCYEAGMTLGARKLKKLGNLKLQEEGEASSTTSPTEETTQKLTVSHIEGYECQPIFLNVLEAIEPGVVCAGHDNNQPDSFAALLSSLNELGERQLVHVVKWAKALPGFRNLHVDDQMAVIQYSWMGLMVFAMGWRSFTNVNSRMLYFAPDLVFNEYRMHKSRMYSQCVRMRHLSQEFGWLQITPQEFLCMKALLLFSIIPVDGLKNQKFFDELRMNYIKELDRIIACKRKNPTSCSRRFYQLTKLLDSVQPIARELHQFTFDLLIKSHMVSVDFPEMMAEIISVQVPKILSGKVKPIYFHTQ
# Experiment: Androgen Receptor ELISA assay (PathScan AR ELISA) in VCaP cells: AR degradation, Dmax and DC50
# Assay type: cell-based
# Method in brief: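 After 24 h exposure of VCaP cells (charcoal-stripped serum, 0.1 nM R1881 agonist, 0.1% DMSO) to seven half-log compound concentrations, residual AR in lysates was measured by PathScan ELISA (TMB absorbance, 450 nm). Cells were plated at 30,000/well and grown at least 3 days beforehand.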
# [1] = read-out: VCaP DC50; VCaP cells; Table 34
# [2] = read-out: VCaP DC50; VCaP cells; Table 36
# [3] = VCaP cells; Table 36; read-out: VCaP DC50
# [4] = VCaP cells; Table 34; read-out: VCaP DC50
# [5] = VCaP, VCaP cells; Table 34; read-out: VCaP Dmax (%)
# [6] = VCaP cells; Table 35; read-out: VCaP DC50
# [7] = VCaP, VCaP cells; Table 35; read-out: VCaP Dmax (%)
smiles,measurement,setting,value
Cc1ncsc1-c1ccc(CNC(=O)[C@@H]2C[C@@H](O)CN2C(=O)[C@H](C)NC(=O)COCCCOCCCCOc2ccc(N3C(=S)N(c4ccc(C#N)c(C(F)(F)F)c4)C(=O)C3(C)C)cc2)cc1 [Example 366],DC50,[1],< 50 nM
Cc1ncsc1-c1ccc([C@H](C)NC(=O)[C@@H]2C[C@@H](O)CN2C(=O)[C@H](C(C)C)n2cc(OCCCOCCCCCOc3ccc(N4C(=S)N(c5ccc(C#N)c(C(F)(F)F)c5)C(=O)C4(C)C)cc3)cn2)nc1 [Example 428],Dmax,"VCaP, read-out: VCaP Dmax (%)",< 25%
same,DC50,read-out: VCaP DC50; VCaP cells; Table 35,> 501 nM
"Cc1ncsc1-c1ccc([C@H](C)NC(=O)[C@@H]2C[C@@H](O)CN2C(=O)[C@@H](NC(=O)CN2CCN(CC3(CNc4ccc(C(=O)N[C@H]5C(C)(C)[C@H](Oc6ccc(C#N)c(C(F)(F)F)c6)C5(C)C)cc4)COC3)CC2)C(C)(C)C)cc1 [Example 686, (2S,4R)-1-((S)-2-(2-(4-((3-(((4-(((1r,3r)-3-(4-cyano-3-(trifluoromethyl)phenoxy)-2,2,4,4-tetramethylcyclobutyl)carbamoyl)phenyl)amino)methyl)oxetan-3-yl)methyl)piperazin-1-yl)acetamido)-3,3-dimethylbutanoyl)-4-hydroxy-N-((S)-1-(4-(4-methylthiazol-5-yl)phenyl)ethyl)pyrrolidine-2-carboxamide]",Dmax,"VCaP, read-out: VCaP Dmax (%)",26 to 50%
same,DC50,[2],< 50 nM
Cc1ncsc1-c1ccc([C@H](C)NC(=O)[C@@H]2C[C@@H](O)CN2C(=O)[C@@H](NC(=O)COCCCCOCCCCOc2ccc(N3C(=S)N(c4ccc(C#N)c(C(F)(F)F)c4)C(=O)C3(C)C)cc2)C(C)(C)C)cc1 [Example 373],Dmax,"VCaP, read-out: VCaP Dmax (%)",51 to 70%
same,DC50,[1],< 50 nM
"CC(C)(C)c1ccc(CNC(=O)[C@@H]2C[C@@H](O)CN2C(=O)[C@@H](NC(=O)COCCN2CCN(c3ccc(C(=O)N[C@H]4C(C)(C)[C@H](Oc5ccc(C#N)c(Cl)c5)C4(C)C)cn3)CC2)C(C)(C)C)cc1 [Example 776, 6-(4-(2-(2-(((S)-1-((2S,4R)-2-((4-(tert-butyl)benzyl)carbamoyl)-4-hydroxypyrrolidin-1-yl)-3,3-dimethyl-1-oxobutan-2-yl)amino)-2-oxoethoxy)ethyl)piperazin-1-yl)-N-((1r,3r)-3-(3-chloro-4-cyanophenoxy)-2,2,4,4-tetramethylcyclobutyl) nicotinamide]",DC50,[3],> 501 nM
same,Dmax,"VCaP, VCaP cells; Table 36; read-out: VCaP Dmax (%)",< 25%
Cc1ncsc1-c1ccc(CNC(=O)[C@@H]2C[C@@H](O)CN2C(=O)[C@@H](NC(=O)COCCCCOc2ccc(-c3ccc(N4C(=S)N(c5ccc(C#N)c(C(F)(F)F)c5)C(=O)C4(C)C)cc3F)cc2)C(C)(C)C)cc1 [Example 400],Dmax,"VCaP, read-out: VCaP Dmax (%)",> 71%
same,DC50,[1],< 50 nM
Cc1ncsc1-c1ccc(CNC(=O)[C@@H]2C[C@@H](O)CN2C(=O)[C@@H](NC(=O)COCCCCNc2ccc(-c3ccc(N4C(=S)N(c5cnc(C#N)c(C(F)(F)F)c5)C(=O)C4(C)C)cc3)cc2)C(C)(C)C)cc1 [Example 391],DC50,[4],< 50 nM
same,Dmax,[5],51 to 70%
Cc1ncsc1-c1ccc([C@H](C)NC(=O)[C@@H]2C[C@@H](O)CN2C(=O)[C@@H](NC(=O)COCCCCCNc2ccc(C(=O)N(C)[C@H]3C(C)(C)[C@H](Oc4ccc(C#N)c(Cl)c4)C3(C)C)cc2)C(C)(C)C)cc1 [Example 473],DC50,[6],< 50 nM
same,Dmax,[7],26 to 50%
"Cc1ncsc1-c1ccc(CNC(=O)[C@@H]2C[C@@H](O)CN2C(=O)C(C(C)C)n2cc(Oc3cccc(OCCCCCOc4ccc(N5C(=S)N(c6ccc(C#N)c(C(F)(F)F)c6)C(=O)C5(C)C)cc4)c3)cn2)cc1 (stereo in doubt) [Example 602, (2S,4R)-1-((R)-2-(4-(3-((5-(4-(3-(4-cyano-3-(trifluoromethyl)phenyl)-5,5-dimethyl-4-oxo-2-thioxoimidazolidin-1-yl)phenoxy)pentyl)oxy)phenoxy)-1H-pyrazol-1-yl)-3-methylbutanoyl)-4-hydroxy-N-(4-(4-methylthiazol-5-yl)benzyl)pyrrolidine-2-carboxamide]",DC50,[2],> 501 nM
"Cc1ncsc1-c1ccc([C@H](C)NC(=O)C2CC3CN2C(=O)C(C(C)(C)C)NC(=O)COCCCOCCC(CCOc2ccc(N4C(=O)N(c5ccc(C#N)c(C(F)(F)F)c5)C(=O)C4(C)C)cc2)OC(=O)CCCCCn2cc(nn2)CCC(=O)O3)cc1 (stereo partly drawn) [Example 629, (63R,8S,Z)-8-(tert-butyl)-19-(2-(4-(3-(4-cyano-3-(trifluoromethyl)phenyl)-5,5-dimethyl-4-oxo-2-thioxoimidazolidin-1-yl)phenoxy)ethyl)-N-((S)-1-(4-(4-methylthiazol-5-yl)phenyl)ethyl)-4,7,10,21-tetraoxo-11H-5,12,16,20-tetraoxa-9-aza-1(4,1)-triazola-6(3,1)-pyrrolidineacyclohexaco-saphane-65-carboxamide]",Dmax,"VCaP, read-out: VCaP Dmax (%)",26 to 50%
same,DC50,[2],51 to 500 nM
CC(C)(C)[C@H](NC(=O)COCCCCOc1ccc(C(=O)N[C@H]2C(C)(C)[C@H](Oc3ccc(C#N)c(Cl)c3)C2(C)C)cc1)C(=O)N1C[C@H](O)C[C@H]1C(=O)NCc1ccc(-c2ccccc2)cc1 [Example 407],DC50,[4],< 50 nM
same,Dmax,[5],51 to 70%
"Cc1ncsc1-c1ccc([C@H](C)NC(=O)[C@@H]2C[C@@H](O)CN2C(=O)[C@@H](NC(=O)CN2C3CCC2CN(CCCc2ccc(C(=O)NC4C(C)(C)C(Oc5ccc(C#N)c(Cl)c5)C4(C)C)cc2)C3)C(C)(C)C)cc1 (stereo partly drawn) [Example 802, (2S,4R)-1-((2S)-2-(2-(3-(3-(4-(((1r,3r)-3-(3-chloro-4-cyanophenoxy)-2,2,4,4-tetramethylcyclobutyl)carbamoyl)phenyl)propyl)-3,8-diazabicyclo[3.2.1]octan-8-yl)acetamido)-3,3-dimethylbutanoyl)-4-hydroxy-N-((S)-1-(4-(4-methylthiazol-5-yl)phenyl)ethyl)pyrrolidine-2-carboxamide]",VCaP Dmax (%),VCaP cells; Table 36,+++ (51% ≤ Dmax ≤ 70%)
same,DC50,[3],< 50 nM
Cc1ncsc1-c1ccc(CNC(=O)[C@@H]2C[C@@H](O)CN2C(=O)[C@@H](NC(=O)COCCCOCCCCCOc2ccc(N3C(=S)N(c4ccc(C#N)cc4)C(=O)C3(C)C)cc2)C(C)(C)C)cc1 [Example 479],Dmax,[7],26 to 50%
"Cc1ncsc1-c1ccc(CNC(=O)[C@@H]2C[C@@H](O)CN2C(=O)[C@@H](NC(=O)COC(C)CCCOc2ccc(-c3ccc(N4C(=S)N(c5ccc(C#N)c(C(F)(F)F)c5)C(=O)C4(C)C)cc3)cc2)C(C)(C)C)cc1 (stereo in doubt) [Example 147, (2S,4R)-1-[(2S)-2-(2-{[(2S)-5-[4-(4-{3-[4-cyano-3-(trifluoromethyl)phenyl]-5,5-dimethyl-4-oxo-2-sulfanylideneimidazolidin-1-yl}phenyl)phenoxy]pentan-2-yl]oxy}acetamido)-3,3-dimethylbutanoyl]-4-hydroxy-N-{[4-(4-methyl-1,3-thiazol-5-yl)phenyl]methyl}pyrrolidine-2-carboxamide]",Dmax,"VCaP, read-out: VCaP Dmax (%)",> 71%
same,DC50,"read-out: VCaP DC50; concentration that caused 50% Androgen Receptor degradation, VCaP cells (Table 32)",< 50 nM
"Cc1ncsc1-c1ccc([C@@H](C)NC(=O)[C@@H]2C[C@@H](O)CN2C(=O)[C@@H](NC(=O)COCCCCNc2ccc(C(=O)N[C@H]3C(C)(C)[C@H](Oc4ccc(C#N)c(Cl)c4)C3(C)C)cc2)C(C)(C)C)cc1 [Example 178, (2S,4R)-1-[(2S)-3,3-dimethyl-2-(2-{4-[(4-{[trans-3-(3-chloro-4-cyanophenoxy)-2,2,4,4-tetramethylcyclobutyl]carbamoyl}phenyl)amino]butoxy}acetamido)butanoyl]-4-hydroxy-N-[(1R)-1-[4-(4-methyl-1,3-thiazol-5-yl)phenyl]ethyl]pyrrolidine-2-carboxamide]",Dmax,"VCaP, highest percentage of Androgen Receptor degradation observed, VCaP cells (Table 32); read-out: VCaP Dmax (%)",26 to 50%
same,DC50,"concentration that caused 50% Androgen Receptor degradation, VCaP cells (Table 32); read-out: VCaP DC50",< 50 nM
CC(C)(C)[C@H](NC(=O)COCCCCCNc1ccc(C(=O)N[C@H]2C(C)(C)[C@H](Oc3ccc(C#N)c(Cl)c3)C2(C)C)cn1)C(=O)N1C[C@H](O)C[C@H]1C(=O)NCc1ccc(C#N)cc1 [Example 551],DC50,[6],< 50 nM
same,Dmax,[7],51 to 70%
CC(C)(C)[C@H](NC(=O)COCCCCCNc1ccc(C(=O)N[C@H]2C(C)(C)[C@H](Oc3ccc(C#N)c(Cl)c3)C2(C)C)cc1)C(=O)N1C[C@H](O)C[C@H]1C(=O)NCc1ccc(-c2ccccn2)cc1 [Example 536],DC50,[6],< 50 nM
same,Dmax,[7],26 to 50%
